Results: patent US11413278B2, “Compounds and methods for promoting stress resistance” (priority 2015, dated 2022)
Entries after “also recorded” stand apart in the source; their conditions may differ. Like-named read-outs stand apart in the source and are kept apart here.

Tests used:
FOXO3 = experiment: qPCR analysis of FOXO3-regulated genes; type: cell-based, human; conditions: for fold induction at 10 µM: Homo sapiens; for K = Sestrin induction: score
Procedure, shortened: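 WI-38 cells treated with compound at 10 μM for 24 h, followed by Cells-to-Ct RT-qPCR of FOXO3 target genes normalised to B2M, PPIA and GAPDH. FOXO3 or NRF2 dependence tested by prior 10 nM siRNA knockdown (36 h transfection, compound added ~24 h after replating).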

[1] = test system: human dermal fibroblast (HDF) primary cells; experiment: H2O2-resistance in primary human dermal fibroblasts; type: cell-based; conditions: for fold induction at 10 µM: Homo sapiens; for Assay 6: H2O2-resistant, at 10 uM, human dermal fibroblast (HDF) primary cells: YES/NO
[2] = Summary score for characterization of 38 core set hits; conditions: for D = Triple resistant: 2-point score, multiplex resistance (cadmium, MMS, H2O2); for S = Sum of Negative scores: human; for C = H2O2- & Cd-resistant: score, resistance to both H2O2 and cadmium
Procedure: 38 “core set” small molecules are listed and are assigned a score, based on the result for each individual characterization. From our small molecule screen for H2O2-resistance, we isolated 61 top hits. […] Specifically, a 2-point score was assigned to the most well-known and prominent longevity-related phenotypes, such as multiplex resistance, activation of FOXO3 and/or NRF2, and down-regulation of mTOR. Small molecules were also analyzed for their ability to extend C. elegans' lifespan in 4 to 6 independent trials, and the lifespan score scale is from 0 to 2: 0 for no obvious effects, 1 for lifespan extension observed in 2 trials, 2 for observed in more than 2 trials. Certain molecules appeared to have DNA-damaging effects and/or potential cell-toxicity in cultured human cells, and they receive a negative point.

WI-38 cells [3] = experiment: Propidium iodide (PI) cell-death imaging upon H2O2 stress; type: cell-based, human; conditions: for Assay 7: H2O2-resistant, at 10 uM, validated by propidium iodide (PI) cell-death imaging: w/H2O2, 3 hrs/4 hrs/5 hrs, YES/NO; for cytotoxicity at 10 µM: Homo sapiens, WI-38
WI-38 cells [4] = conditions: for No H2O2 stress treatment, at 10 uM (fold change): normalized ATP measurement; for Assay 1: H2O2-resistant: YES/NO, if NO, possibly due to repeated freezing/thawing of stocks
C. elegans = type: in vivo, Caenorhabditis elegans; conditions: in vivo
Procedure: The worms were treated with the small molecules in liquid, with H2O2 (500 μM final concentration) added on day 4 of adulthood, and scored for viability everyday
FUdR was used to block progeny production. The molecules were analyzed in 96-well plates, with 4 wells for each small molecule. Multiple control wells with DMSO (0.2% final concentration) were included. […] Day 1 adults were transferred onto mini-plates, seeded with OP50 bacteria (UV-irradiated, kanamycin-treated) and supplemented with small molecules (˜60 μM final concentration, 0.2% DMSO). Worms were scored every other day. Cumulative survival was analyzed using the STATA software (log-rank test). […] The worms were treated with the small molecules in liquid, with H2O2 (500 μM final concentration) added on day 4 of adulthood, and scored for viability every day.

[5] = 24 h, Assay 10(m), at 10 uM, qPCR, read-out: Induction of FOXO3-regulated genes: DDB1 normalized fold-change
[6] = 24 h, Assay 10(m), at 10 uM, qPCR, read-out: Induction of FOXO3-regulated genes: GADD45A normalized fold-change
[7] = 24 h, Assay 10(m), at 10 uM, qPCR, read-out: Induction of FOXO3-regulated genes: SESN1 normalized fold-change
[8] = WI-38, 24 h, read-out: SESN1 expression
[9] = WI-38 cells, 10 μM, 24 hrs, n=4, qPCR normalized by B2M, read-out: DDB1 Normalized fold change
[10] = WI-38 cells, 10 μM, 24 hrs, n=4, qPCR normalized by B2M, read-out: GADD45A Normalized fold change
[11] = WI-38 cells, 10 μM, 24 hrs, n=4, qPCR normalized by B2M, read-out: SESN1 Normalized fold change
[12] = qPCR, WI-38 cells, 10 μM, n=4, 24 hrs, normalized by B2M, read-out: CAT Normalized fold change
[13] = qPCR, WI-38 cells, 10 μM, n=4, 24 hrs, normalized by B2M, read-out: SOD2 Normalized fold change
[14] = qPCR, WI-38 cells, 10 μM, n=4, 24 hrs, normalized by B2M, read-out: TXNIP Normalized fold change
[15] = Experiment 1, HDF cells, read-out: Experiment 1, HDF cells (under H2O2 stress treatment), at 10 uM (fold change)
[16] = Experiment 2, HDF cells, read-out: Experiment 2, HDF cells (under H2O2 stress treatment), at 10 uM (fold change)
[17] = H2O2 3 hrs, 10 uM, n = 6, negative control 5.44% ± 0.79%, read-out: Percentage of propidium iodide-positive dead cells (under H2O2 stress treatment), 3 hrs
[18] = pre-treatment at 10 uM, 3.5 hours of H2O2, DMSO control 27.4% ± 6.5%, */**/*** = reduced by one/two/three standard deviations, read-out: Percentage of propidium iodide-positive dead cells (under H2O2 stress treatment), at 10 uM
[19] = WI-38 cells, 10 μM, (*) = compromised ability to protect cells from H2O2, could be due to stability issue
[20] = asterisks indicate the loss of the ability to protect cells from H2O2 over time
[21] = derived from dose response curves, 0.6-20 uM, H2O2-resistance of WI-38 cells
[22] = read-out: Est. ED50, dose response 0.6-20 μM, H2O2-resistance

SMILES	E = Potential FOXO3 Activation (FOXO3; 2-point score)	fold induction at 10 µM (FOXO3; [9])	fold induction at 10 µM (FOXO3; [10])	fold induction at 10 µM (FOXO3; [11])	fold induction at 10 µM (FOXO3; [12])	fold induction at 10 µM (FOXO3; [13])	fold induction at 10 µM (FOXO3; [14])	K = Sestrin induction (FOXO3)	E = Potential FOXO3 Activation (FOXO3; summary score)	fold induction at 10 µM [1, 15]	fold induction at 10 µM [1, 16]	Assay 6: H2O2-resistant, at 10 uM, human dermal fibroblast (HDF) primary cells [1]	D = Triple resistant [2]	S = Sum of Negative scores [2]	C = H2O2- & Cd-resistant [2]	Assay 7: H2O2-resistant, at 10 uM, validated by propidium iodide (PI) cell-death imaging (WI-38 cells [3]; 10 uM)	cytotoxicity at 10 µM (WI-38 cells [3]; [17]) [%]	cytotoxicity at 10 µM (WI-38 cells [3]; [18]) [%]	H2O2-resistant (WI-38 cells [4]; [19])	No H2O2 stress treatment, at 10 uM (fold change) (WI-38 cells [4]; WI-38 cells)	also measured
CCc1ccccc1NC(=O)c1ccc([N+](=O)[O-])o1 [Gr-1C]	0	1.4	0.727	1.9	1.44	1.33	1.23	0	0	15.2	49.1	YES	0	1	1	YES	2.49	7.8	YES	0.81	Induction of at least two of five FOXO3-regulated genes (SOD2, GADD45A, CAT, DDB1, TXNIP) (FOXO3; 10 μM, 24 hrs, WI-38): significant induction; also recorded: induce FOXO3-regulated genes; fold induction at 10 µM (FOXO3; 24 h, Assay 10(m), at 10 uM, qPCR, read-out: Induction of FOXO3-regulated genes: CAT normalized fold-change): 1.41; fold induction at 10 µM (FOXO3; [5]): 1.14; fold induction at 10 µM (FOXO3; [6]): 0.6; fold induction at 10 µM (FOXO3; [7]): 1.59; fold induction at 10 µM (FOXO3; [8]): > 1.5; fold induction at 10 µM (FOXO3; 10 μM, 24 hrs, WI-38 cells, qPCR, normalized to B2M, n = 4, read-out: CAT expression, normalized fold change (FOXO3-regulated gene)): 1.44; fold induction at 10 µM (FOXO3; fold change, qPCR, WI-38 cells, 10 μM, 24 hrs, read-out: Summary of effects on FOXO3-regulated genes: CAT): 1.44; cytotoxicity at 10 µM (WI-38 cells [3]; H2O2 4 hrs, 10 uM, n = 6, negative control 16.81% ± 1.42%, read-out: Percentage of propidium iodide-positive dead cells (under H2O2 stress treatment), 4 hrs): 3.1%; cytotoxicity at 10 µM (WI-38 cells [3]; H2O2 5 hrs, 10 uM, n = 6, negative control 22.50% ± 1.53%, read-out: Percentage of propidium iodide-positive dead cells (under H2O2 stress treatment), 5 hrs): 4.05%; Assay 1: H2O2-resistant (WI-38 cells [4]): YES; H2O2-resistant (WI-38 cells [4]; [20]): YES; EC50 (WI-38 cells [4]; [21]): 8 µM; EC50 (WI-38 cells [4]; [22]): 2.66 µM; L = H2O2-resistance in worms (C. elegans): 0; N = H2O2-resistance in woms (C. elegans): 0
Cc1cc(N)n(-c2ccccc2C(=O)O)n1 [Gr-6A]	0	1.05	0.787	1.18	1.2	0.868	1.14	0	0	10.3	39.3	YES	2	0	1	YES	4.38	15.6	YES	1.10	fold induction at 10 µM (FOXO3; [6]): 0.79; fold induction at 10 µM (FOXO3; 10 μM, 24 hrs, WI-38 cells, qPCR, normalized to B2M, n = 4, read-out: GADD45A expression, normalized fold change (FOXO3-regulated gene)): 0.79; fold induction at 10 µM (FOXO3; fold change, qPCR, WI-38 cells, 10 μM, 24 hrs, read-out: Summary of effects on FOXO3-regulated genes: GADD45A): 0.79; Assay 1: H2O2-resistant (WI-38 cells [4]): YES; H2O2-resistant (WI-38 cells [4]; [20]): YES; EC50 (WI-38 cells [4]; [21]): 13.8 µM; EC50 (WI-38 cells [4]; [22]): 40.5 µM; H2O2-resistance assay, 1st experiment (C. elegans): YES;; L = H2O2-resistance in worms (C. elegans): 0; N = H2O2-resistance in woms (C. elegans): 0
O=C(/C=C/c1cn(-c2ccccc2)nc1-c1cccnc1)c1ccccc1 [Gr-6B]	0	1.19	1.26	1.25	1.11	1.14	0.861	0	0	3.6	57.6	YES	0	0	1	YES	2.62	2.1	YES	1.10	fold induction at 10 µM (FOXO3; [5]): 1.19; fold induction at 10 µM (FOXO3; 10 μM, 24 hrs, WI-38 cells, qPCR, normalized to B2M, n = 4, read-out: DDB1 expression, normalized fold change (FOXO3-regulated gene)): 1.19; fold induction at 10 µM (FOXO3; fold change, qPCR, WI-38 cells, 10 μM, 24 hrs, read-out: Summary of effects on FOXO3-regulated genes: DDB1): 1.19; Assay 1: H2O2-resistant (WI-38 cells [4]): YES; H2O2-resistant (WI-38 cells [4]; [20]): YES; EC50 (WI-38 cells [4]; [22]): 45.1 µM; L = H2O2-resistance in worms (C. elegans): 0; N = H2O2-resistance in woms (C. elegans): 0
COc1ccc(/C=C2\SC(=N)N(c3nccs3)C2=O)cc1 [O21]	0	1.45	2.06	1.88	1.3	1.12	0.9	1	0	140	25.5	YES	0	2	0	YES	2.05	7.8	YES	0.92	fold induction at 10 µM (FOXO3; [7]): 1.88; fold induction at 10 µM (FOXO3; [8]): > 1.5; fold induction at 10 µM (FOXO3; 10 μM, 24 hrs, WI-38 cells, qPCR, normalized to B2M, n = 4, read-out: SESN1 expression, normalized fold change (FOXO3-regulated gene)): 1.88; fold induction at 10 µM (FOXO3; fold change, qPCR, WI-38 cells, 10 μM, 24 hrs, read-out: Summary of effects on FOXO3-regulated genes: SESN1): 1.88; H2O2-resistant (WI-38 cells [4]; [20]): YES; EC50 (WI-38 cells [4]; [21]): 18.1 µM; EC50 (WI-38 cells [4]; [22]): 18.1 µM; L = H2O2-resistance in worms (C. elegans): 0; N = H2O2-resistance in woms (C. elegans): 0
